Source: ChEMBL document CHEMBL4270491, “Novel 2,4- thiazolidinediones: Synthesis, in vitro cytotoxic activity, and mechanistic investigation” (Eur J Med Chem, 2017)
pIC50: −log10 of the molar value. Active and inactive are the calls of the source. No cut-off for these calls is given here.

Tests used:
[1] = tested on: HT-1080; assay: Induction of apoptosis in human HT1080 cells assessed as induction of DNA fragmentation at 50 uM incubated for 48 hrs by flow cytometry; assay type: functional, cell-based
[2] = tested on: PC-3; assay: Cytotoxic activity in human PC3 cells assessed as reduction in cell viability incubated for 3 days by MTT assay; assay type: functional, cell-based; conditions: PC-3, 72 h
[3] = tested on: MDA-MB-231; assay: Cytotoxic activity in human MDA-MB-231 cells assessed as reduction in cell viability incubated for 3 days by MTT assay; assay type: functional, cell-based; conditions: MDA-MB-231, 72 h
[4] = tested on: HT-1080; assay: Cytotoxic activity in human HT1080 cells assessed as reduction in cell viability incubated for 3 days by MTT assay; assay type: functional, cell-based; conditions: HT-1080, 72 h
[5] = tested on: HT-1080; assay: Induction of cell cycle arrest in human HT1080 cells assessed as accumulation at G0/G1 phase at 50 uM incubated for 48 hrs by propidium iodide staining based flow cytometry; assay type: functional
[6] = tested on: HT-1080; assay: Induction of cell cycle arrest in human HT1080 cells assessed as accumulation at G2/M phase at 50 uM incubated for 48 hrs by propidium iodide staining based flow cytometry; assay type: functional
[7] = tested on: HT-1080; assay: Induction of apoptosis in human HT1080 cells assessed as induction of caspase-3 cleavage at 50 uM incubated for 24 hrs by Western blot analysis; assay type: functional, cell-based
[8] = tested on: HT-1080; assay: Induction of cell cycle arrest in human HT1080 cells assessed as accumulation at G0/G1 phase at 20 uM incubated for 48 hrs by propidium iodide staining based flow cytometry; assay type: functional
[9] = tested on: HT-1080; assay: Induction of cell cycle arrest in human HT1080 cells assessed as accumulation at G2/M phase at 20 uM incubated for 48 hrs by propidium iodide staining based flow cytometry; assay type: functional
[10] = molecular target: T1, Mitogen-activated protein kinase; ERK1/ERK2 (Homo sapiens) (UniProt P27361+P28482); assay: Induction of ERK1/2 Thr202/Tyr204 phosphorylation in human PC3 cells at 50 uM incubated for 24 hrs by Western blot analysis; assay type: cell-based
T1 sequence (P27361 whole entry, looked up): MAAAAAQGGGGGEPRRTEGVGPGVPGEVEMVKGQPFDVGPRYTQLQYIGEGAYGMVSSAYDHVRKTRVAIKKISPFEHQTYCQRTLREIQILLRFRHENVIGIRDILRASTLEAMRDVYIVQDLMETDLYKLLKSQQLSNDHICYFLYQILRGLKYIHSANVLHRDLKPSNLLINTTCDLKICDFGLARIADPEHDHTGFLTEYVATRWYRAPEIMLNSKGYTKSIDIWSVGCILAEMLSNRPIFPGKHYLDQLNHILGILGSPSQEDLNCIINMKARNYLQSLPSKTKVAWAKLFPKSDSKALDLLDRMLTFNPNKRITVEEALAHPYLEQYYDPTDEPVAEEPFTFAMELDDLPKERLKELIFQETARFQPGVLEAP
T1 sequence (P28482 whole entry, looked up): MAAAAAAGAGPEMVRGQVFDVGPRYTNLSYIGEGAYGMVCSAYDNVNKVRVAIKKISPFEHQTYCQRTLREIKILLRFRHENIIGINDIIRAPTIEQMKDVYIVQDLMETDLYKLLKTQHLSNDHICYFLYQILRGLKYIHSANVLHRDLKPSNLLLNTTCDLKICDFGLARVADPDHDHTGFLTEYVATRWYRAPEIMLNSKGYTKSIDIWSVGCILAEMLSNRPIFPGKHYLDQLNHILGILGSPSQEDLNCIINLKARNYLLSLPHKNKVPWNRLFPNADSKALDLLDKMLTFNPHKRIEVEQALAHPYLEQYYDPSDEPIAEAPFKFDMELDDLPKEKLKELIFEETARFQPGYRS

[11] = molecular target: T1, Mitogen-activated protein kinase; ERK1/ERK2 (Homo sapiens); assay: Inhibition of ERK1/2 Thr202/Tyr204 phosphorylation in human MDA-MB-231 cells at 50 uM incubated for 24 hrs by Western blot analysis; assay type: cell-based
[12] = tested on: PC-3; assay: Increase in p21(WAF1) protein expression in human PC3 cells at 50 uM incubated for 24 hrs by Western blot analysis; assay type: functional, cell-based
[13] = tested on: MDA-MB-231; assay: Increase in p21(WAF1) protein expression in human MDA-MB-231 cells at 50 uM incubated for 24 hrs by Western blot analysis; assay type: functional, cell-based
[14] = tested on: HT-1080; assay: Increase in p21(WAF1) protein expression in human HT1080 cells at 50 uM incubated for 24 hrs by Western blot analysis; assay type: functional, cell-based

| Compound | Activity [1] | pIC50 [2] | pIC50 [3] | pIC50 [4] | Activity [5] | Activity [6] | Activity [7] | Activity [8] | Activity [9] | Activity [10] | inhibition [11] | Activity [12] | Activity [13] | Activity [14] |
| --- | --- | --- | --- | --- | --- | --- | --- | --- | --- | --- | --- | --- | --- | --- |
| COc1cccc(-n2c(COc3ccc(/C=C4/SC(=O)NC4=O)cc3)nc3ccccc3c2=O)c1 | Active | 4.17 | 4.22 | 4.34 | Active | Active | – | – | – | – | – | – | – | – |
| O=C1NC(=O)/C(=C\c2ccc(OCc3nc4ccccc4c(=O)n3-c3ccc(F)cc3)cc2)S1 | Active | 4.28 | 4.34 | 4.34 | Active | Active | – | – | – | – | – | – | – | – |
| CN(C)c1ccc(/C=C2/SC(=O)N(Cc3nc4ccccc4c(=O)n3-c3ccccc3)C2=O)cc1 | Active | 4.71 | 5.23 | 5.05 | – | – | Active | Active | Active | Active | Active | – | – | – |
| COc1cc(-n2c(CN3C(=O)S/C(=C/c4ccc(N(C)C)cc4)C3=O)nc3ccccc3c2=O)cc(OC)c1OC | inactive | < 4.00 | < 4.00 | 4.01 | Active | Active | Active | – | – | – | – | – | – | – |
| Cc1cccc(-n2c(COc3ccc(/C=C4/SC(=O)NC4=O)cc3)nc3ccccc3c2=O)c1 | – | < 4.00 | < 4.00 | 4.27 | – | – | – | – | – | – | – | – | – | – |
| COc1cccc2c1C(=O)c1c(O)c3c(c(O)c1C2=O)C[C@@](O)(C(=O)CO)C[C@@H]3O[C@H]1C[C@H](N)[C@H](O)[C@H](C)O1 [DOXORUBICIN] | – | 6.52 | 6.44 | 7.77 | – | – | – | – | – | – | – | – | – | – |
| O=C1NC(=O)/C(=C\c2ccc(OCc3nc4ccccc4c(=O)n3-c3cccc(Cl)c3)cc2)S1 | Active | 4.15 | 4.23 | 4.35 | Active | Active | – | – | – | – | – | – | – | – |
| O=C1NC(=O)/C(=C\c2ccc(OCc3nc4ccccc4c(=O)n3-c3ccc(C(F)(F)F)cc3)cc2)S1 | Active | 4.72 | 4.89 | 5.05 | – | – | Active | Active | Active | Active | Active | Active | Active | inactive |
| COc1ccc(-n2c(CN3C(=O)S/C(=C/c4ccc(N(C)C)cc4)C3=O)nc3ccccc3c2=O)cc1OC | Active | < 4.00 | < 4.00 | 4.06 | Active | Active | Active | – | – | – | – | – | – | – |
| COc1cc(/C=C2/SC(=O)NC2=O)ccc1OCc1nc2ccccc2c(=O)n1-c1cccc(Br)c1 | Active | 4.18 | 4.21 | 4.38 | Active | Active | – | – | – | – | – | – | – | – |
| O=C1NC(=O)/C(=C\c2ccc(OCc3nc4ccccc4c(=O)n3-c3ccc(Br)cc3)cc2)S1 | Active | 4.22 | 4.34 | 4.34 | Active | Active | – | – | – | – | – | – | – | – |
| COc1cc(/C=C2/SC(=O)NC2=O)ccc1OCc1nc2ccccc2c(=O)n1-c1cccc(Cl)c1 | – | 4.21 | 4.14 | 4.17 | – | – | – | – | – | – | – | – | – | – |
| O=C1S/C(=C/c2ccc(Cl)cc2Cl)C(=O)N1Cc1nc2ccccc2c(=O)n1-c1ccccc1 | inactive | 4.24 | 5.19 | 4.91 | – | – | – | Active | Active | – | – | – | – | – |
| COc1cc(/C=C2/SC(=O)NC2=O)ccc1OCc1nc2ccccc2c(=O)n1-c1ccccc1 | Active | 4.19 | 4.07 | 4.19 | Active | Active | – | – | – | – | – | – | – | – |
| COc1cccc(-n2c(COc3ccc(/C=C4/SC(=O)NC4=O)cc3OC)nc3ccccc3c2=O)c1 | Active | 4.19 | 4.06 | 4.32 | Active | Active | – | – | – | – | – | – | – | – |
| COc1ccc(/C=C2/SC(=O)N(Cc3nc4ccccc4c(=O)n3-c3ccccc3)C2=O)cc1 | Active | 4.10 | 4.49 | 4.32 | Active | Active | – | – | – | – | – | – | – | – |
| O=C1NC(=O)/C(=C\c2ccc(OCc3nc4ccccc4c(=O)n3-c3cccc(Br)c3)cc2)S1 | Active | 4.28 | 4.30 | 4.55 | Active | Active | – | – | – | – | – | – | – | – |
| CCc1ccc(CCOc2ccc(CC3SC(=O)NC3=O)cc2)nc1 (stereo not given) [PIOGLITAZONE] | inactive | < 4.00 | < 4.00 | < 4.00 | – | – | – | – | – | – | – | Active | Active | inactive |
| COc1cc(/C=C2/SC(=O)NC2=O)ccc1OCc1nc2ccccc2c(=O)n1-c1ccc(C(F)(F)F)cc1 | Active | 4.30 | 4.39 | 4.41 | Active | Active | Active | – | – | – | – | – | – | – |
| COc1cc(/C=C2/SC(=O)NC2=O)ccc1OCc1nc2ccccc2c(=O)n1-c1ccc(Br)cc1 | Active | 4.29 | 4.29 | 4.72 | Active | Active | Active | – | – | – | – | – | – | – |
| O=C1S/C(=C/c2ccccc2)C(=O)N1Cc1nc2ccccc2c(=O)n1-c1cccc(Br)c1 | – | 4.43 | 4.63 | 4.61 | – | – | – | – | – | – | – | – | – | – |
| Cc1ccc(/C=C2/SC(=O)N(Cc3nc4ccccc4c(=O)n3-c3ccccc3)C2=O)cc1 | – | 4.08 | 4.40 | 4.16 | – | – | – | – | – | – | – | – | – | – |
| O=C1NC(=O)/C(=C\c2ccc(OCc3nc4ccccc4c(=O)n3-c3ccc(Cl)cc3)cc2)S1 | Active | 5.06 | 5.35 | 5.41 | – | – | Active | Active | Active | Active | Active | Active | Active | inactive |
| Cc1ccc(-n2c(COc3ccc(/C=C4/SC(=O)NC4=O)cc3)nc3ccccc3c2=O)cc1 | Active | 4.08 | 4.14 | 4.34 | Active | Active | – | – | – | – | – | – | – | – |
| O=C1NC(=O)/C(=C\c2ccc(OCc3nc4ccccc4c(=O)n3-c3ccccc3)cc2)S1 | Active | 4.15 | 4.29 | 4.46 | Active | Active | – | – | – | – | – | – | – | – |
